# Experimental data as given in US20260365677A1, “NEW CONTRAST AGENTS FOR USE IN DIAGNOSTIC IMAGING” (Bayer Aktiengesellschaft, priority 2022, published 2026).
# Key:
# [1] = No-observed-adverse-effect level (NOAEL) in mice; conditions: intravenous bolus injection
# [2] = Partition coefficient (log P butanol/buffer); format: physicochemical; conditions: 50 mM Tris-HCl, pH 7.4, 10 μM, room temperature
# Description: The partition coefficient P (log P=log(Cbutanol/Cbuffer)) was determined in buffered aqueous solution (10 μM of compound in 0.5 mL 50 mM Tris-HCl saturated with Butanol, pH 7.4) and 1-butanol 1+1 and the mixture was shaken for 2 h at room temperature (n=3). The Gd-concentrations in each phase. CObutano, and Cbuffer were measured by ICP-MS (The Chemistry of Contrast Agents in Medical Magnetic Resonance Imaging” 2nd Ed. Merbach A S, Helm L, Toth E, eds. Hoboken, NJ: Wiley 2013).
# [3] = target: T1, OATP1B3 (Homo sapiens, UniProt Q9NPD5); test: Uptake into stable transfected OATP1B3 HEK 293 cells; format: cell-based; conditions: 100 μM, 40 min, relative to RC1 (Gd-EOB-DTPA)
# T1 construct: expressed in transfected cells
# T1 sequence (Q9NPD5 1-702): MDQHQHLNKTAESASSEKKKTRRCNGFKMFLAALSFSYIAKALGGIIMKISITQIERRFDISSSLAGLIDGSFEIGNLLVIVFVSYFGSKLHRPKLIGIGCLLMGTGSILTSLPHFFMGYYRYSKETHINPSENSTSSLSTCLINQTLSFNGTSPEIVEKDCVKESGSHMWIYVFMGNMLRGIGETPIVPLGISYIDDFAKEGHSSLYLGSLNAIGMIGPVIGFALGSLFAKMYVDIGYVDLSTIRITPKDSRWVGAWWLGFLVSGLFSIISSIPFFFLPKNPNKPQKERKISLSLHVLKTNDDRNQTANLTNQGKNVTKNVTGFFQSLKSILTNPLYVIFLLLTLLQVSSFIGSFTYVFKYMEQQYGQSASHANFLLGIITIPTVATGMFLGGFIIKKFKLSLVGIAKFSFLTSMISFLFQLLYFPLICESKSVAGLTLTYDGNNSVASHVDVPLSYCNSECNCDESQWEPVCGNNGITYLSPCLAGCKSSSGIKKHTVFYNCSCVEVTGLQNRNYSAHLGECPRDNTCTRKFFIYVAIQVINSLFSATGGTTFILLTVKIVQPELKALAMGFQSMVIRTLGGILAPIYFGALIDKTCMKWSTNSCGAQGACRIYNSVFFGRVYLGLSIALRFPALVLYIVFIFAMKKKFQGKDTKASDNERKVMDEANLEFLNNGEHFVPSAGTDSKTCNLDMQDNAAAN
# Description: Human transfected OATP1B3 human embryonic kidney 293 cells (OATP1B3 HEK 293, SLCO1B3, Entrez Gene ID: 28234) were used (Leonhardt M et al. Drug Metab Dispos. 2010 July; 38(7):1024-8). The following culture medium was used: 500 mL DMEM (Dulbecco's Modified Eagle Medium—high Glucose, D6429), 50 mL FCS (fetal bovine serum, Fa. Sigma, F7524), 5.8 mL G418 (Geneticin, Fa. Gibco 10131-027) and 5 mL Pen-Strep. (Penicillin-Streptomycin, Fa. Gibco, Ref 15140-122). Cryopreserved cells were shortly thawed in water bath and diluted in 10 mL warm culture medium (37 °C). After medium change the cells were grown for 3d in a 25 cm^2 cell culture flask. After 3 to 5d the cells were transferred into 75 cm^2 flasks. For the splitting of cells these were incubated with 1.5 mL trypsin (Trypsin-EDTA (1×) 0.05%, Ref 25300-054 100 ml, Fa. Gibco) for 3-5 min in the incubator (37 °C, 5% CO2 and 95% oxygen). After centrifugation and washing with medium the cells were counted (50 μL cell suspension and 50 μL trypan blue (Trypan Blue Solution, 93595-50 ml, Fa. Fluka). Cells were cultured (1×10^5 cells/well) in poly-D-lysine coated 24-well plates (Fa. Corning, Ref: 354414) in 1.5 mL medium per well. After 48 hours in the incubator the medium was changed and 1.5 mL/well sodium butyrate containing medium were added (40 mL culture medium plus 400 μL Na-Butyrate, Fa. Sigma Aldrich B5887-5G, 250 mg in 2.27 mL MilliQ water). After 24 hours in the incubator the medium was vacuumed off and 1.5 mL transport buffer was added and incubated for 10 min. The transport buffer contains the following ingredients: 500 mL HBSS (Hank's balanced salt solution, Hyclone, SH30268.01), 5 mL HEPES buffer (4-(2-hydroxyethyl)-1-piperazine-ethanesulfonic acid, Gibco 15630-056) and 3.9 mL glucose (Sigma, G8270-100, 90 g/200 mL MilliQ water). All test items were prepared in transport buffer at a final concentration of 100 μM from stock solutions (180 to 500 mM concentration). The OATP1B3 HEK 293 cells were incubated with test solutions (test item in transport buffer 500 μL) for 40 min on a thermoshaker without shaking (PHMP, Fa. Grant Bio). Triplicates were performed for each test item. After incubation the cells were washed with 2 mL of cold PBS (+) buffer (Dulbeccos PBS+, Fa. Gibco). […] As a reference standard Gd-EOB-DTPA (gadoxetate) is used in the same well plate. The OATP1B3 HEK 293 uptake of the test compound is calculated relative to gadoxetate (resulting in the unit % of RC1).
# [4] = tested on: freshly isolated rat hepatocytes; test: Uptake into freshly isolated rat hepatocytes; format: cell-based; conditions: 100 μmol Gd/L, 10 min, 37 °C, relative to RC1 (Gd-EOB-DTPA)
# Description: Triplicates were performed for each test item.
# [5] = Exploratory water solubility in 10 mM Tris-HCl buffer, pH 7.4; format: physicochemical; conditions: aqueous buffer (10 mM Tris-HCl), 20 °C
# Description: The exploratory water solubility of the compounds is determined at room temperature (20 °C) in 0.5 mL buffer solution (10 mM Tris-HCl, pH 7.4) in the microcentrifuge tubes (Eppendorf, 2.0 mL safe-lock caps). The solid compounds were added stepwise to the buffer solution. More substance is added once all the suspended material is dissolved until an equilibrium between undissolved and dissolved substance is reached. The suspension was mixed using a shaker (Heidolph Reax 2000) and treated 5 min in an ultrasound bath (Bandelin, Sonorex Super RK255H). The Gadolinium concentration of the test substance in the clear solution is measured by ICP-MS.
compound,measurement,setting,value
"CCOc1ccc(CC2CN(CC(=O)[O-])CCN(CC(=O)[O-])CCN(CC(=O)O)CCN2CC(=O)[O-])cc1.[Gd+3] (centres unmarked) [Example 7, Gadolinium-2,2′,2″-[10-(carboxymethyl)-2-(4-ethoxybenzyl)-1,4,7,10-tetraazacyclododecane-1,4,7-triyl]triacetate]",NOAEL,[1],1.50 mmol Gd/kg bw
same,Log P,[2],−1.32
same,Uptake into OATP1B3-HEK 293 cells,[3],36 % of RC1
same,Uptake rat hepatocytes,[4],73 % of RC1
same,Solubility,[5],>0.403 mol/L
